Data: publication PMC8645336, “Benchmarking a highly selective USP30 inhibitor for enhancement of mitophagy and pexophagy” (Life Science Alliance, 2021)

Experiments:
Test in all cases: biochemical
Parameters in all cases: Ubiquigent DUB profiler selectivity panel, remaining enzyme activity as % of control
Conditions in all cases: read-out: % of control remaining
USP15 = target: T1, USP15 (Homo sapiens, UniProt Q9Y4E8)
T1 sequence (Q9Y4E8 1-981): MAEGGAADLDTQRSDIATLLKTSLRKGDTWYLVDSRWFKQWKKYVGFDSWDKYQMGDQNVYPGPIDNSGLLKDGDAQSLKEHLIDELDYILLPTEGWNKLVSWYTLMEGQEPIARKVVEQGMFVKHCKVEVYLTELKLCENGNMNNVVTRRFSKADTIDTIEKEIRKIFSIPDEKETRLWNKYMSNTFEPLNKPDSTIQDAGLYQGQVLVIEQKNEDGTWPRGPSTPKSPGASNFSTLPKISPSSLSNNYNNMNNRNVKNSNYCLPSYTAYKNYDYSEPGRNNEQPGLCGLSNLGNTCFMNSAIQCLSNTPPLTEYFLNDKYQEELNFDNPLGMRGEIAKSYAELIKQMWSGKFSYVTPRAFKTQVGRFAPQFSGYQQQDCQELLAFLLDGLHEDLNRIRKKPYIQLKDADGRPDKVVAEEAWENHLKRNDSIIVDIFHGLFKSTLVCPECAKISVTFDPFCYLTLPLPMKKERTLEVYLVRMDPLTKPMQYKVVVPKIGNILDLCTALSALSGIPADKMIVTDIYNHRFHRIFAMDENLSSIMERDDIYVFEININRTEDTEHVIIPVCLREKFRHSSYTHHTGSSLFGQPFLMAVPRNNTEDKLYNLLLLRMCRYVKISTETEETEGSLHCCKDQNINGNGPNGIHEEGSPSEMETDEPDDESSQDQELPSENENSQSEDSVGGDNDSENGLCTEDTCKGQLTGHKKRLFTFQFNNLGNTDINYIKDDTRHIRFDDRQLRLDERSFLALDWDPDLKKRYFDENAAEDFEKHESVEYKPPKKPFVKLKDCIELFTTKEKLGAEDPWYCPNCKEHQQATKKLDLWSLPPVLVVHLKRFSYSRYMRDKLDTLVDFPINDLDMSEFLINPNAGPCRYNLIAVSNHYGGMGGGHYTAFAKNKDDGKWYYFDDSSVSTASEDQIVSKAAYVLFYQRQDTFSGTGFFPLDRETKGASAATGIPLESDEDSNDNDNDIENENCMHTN
In short: (§1)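 CMPD-39 selectivity was profiled at 1-100 μM across >40 DUBs. Cellular engagement used 2 h CMPD-39 pretreatment, then HA-Ub-PA probe for 10 min at 37°C, with USP30 band shift on immunoblot. TOMM20 ubiquitylation was blotted in YFP-PRKN hTERT-RPE1 cells after 1 h antimycin A/oligomycin A (1 μM each).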

USP12/UAF1/WDR20 = USP12/UAF1/WDR20 (Homo sapiens, UniProt O75317)
Sequence of USP12/UAF1/WDR20 (O75317 whole entry): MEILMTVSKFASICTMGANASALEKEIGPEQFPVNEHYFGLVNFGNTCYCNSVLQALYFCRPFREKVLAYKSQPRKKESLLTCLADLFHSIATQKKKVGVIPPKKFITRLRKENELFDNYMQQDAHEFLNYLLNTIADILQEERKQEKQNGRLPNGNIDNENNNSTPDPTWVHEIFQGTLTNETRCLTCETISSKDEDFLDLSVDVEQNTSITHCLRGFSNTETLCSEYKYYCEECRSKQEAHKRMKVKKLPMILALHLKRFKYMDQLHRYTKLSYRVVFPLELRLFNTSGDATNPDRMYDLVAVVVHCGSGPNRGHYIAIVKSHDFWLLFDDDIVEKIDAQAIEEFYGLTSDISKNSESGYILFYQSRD
Sequence of USP12/UAF1/WDR20 (Q8TAF3 whole entry partner): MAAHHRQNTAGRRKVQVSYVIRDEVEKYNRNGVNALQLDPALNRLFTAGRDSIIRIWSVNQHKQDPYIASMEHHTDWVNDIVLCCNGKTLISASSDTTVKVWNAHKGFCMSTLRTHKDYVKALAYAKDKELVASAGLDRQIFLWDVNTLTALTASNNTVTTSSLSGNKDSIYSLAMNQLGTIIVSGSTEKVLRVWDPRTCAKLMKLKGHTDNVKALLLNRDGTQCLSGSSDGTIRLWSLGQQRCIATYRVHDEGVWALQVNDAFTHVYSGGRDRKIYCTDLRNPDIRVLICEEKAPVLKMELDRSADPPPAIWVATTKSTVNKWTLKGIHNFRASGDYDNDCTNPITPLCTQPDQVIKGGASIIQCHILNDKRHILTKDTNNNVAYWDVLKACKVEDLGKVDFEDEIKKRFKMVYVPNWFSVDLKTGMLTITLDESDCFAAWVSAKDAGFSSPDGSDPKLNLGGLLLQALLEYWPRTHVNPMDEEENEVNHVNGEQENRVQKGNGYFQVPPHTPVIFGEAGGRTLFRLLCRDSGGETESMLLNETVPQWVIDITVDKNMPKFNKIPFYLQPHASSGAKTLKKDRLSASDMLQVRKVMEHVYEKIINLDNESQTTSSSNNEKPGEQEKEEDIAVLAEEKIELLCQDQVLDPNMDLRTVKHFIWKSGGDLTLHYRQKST
Sequence of USP12/UAF1/WDR20 (Q8TBZ3 whole entry partner): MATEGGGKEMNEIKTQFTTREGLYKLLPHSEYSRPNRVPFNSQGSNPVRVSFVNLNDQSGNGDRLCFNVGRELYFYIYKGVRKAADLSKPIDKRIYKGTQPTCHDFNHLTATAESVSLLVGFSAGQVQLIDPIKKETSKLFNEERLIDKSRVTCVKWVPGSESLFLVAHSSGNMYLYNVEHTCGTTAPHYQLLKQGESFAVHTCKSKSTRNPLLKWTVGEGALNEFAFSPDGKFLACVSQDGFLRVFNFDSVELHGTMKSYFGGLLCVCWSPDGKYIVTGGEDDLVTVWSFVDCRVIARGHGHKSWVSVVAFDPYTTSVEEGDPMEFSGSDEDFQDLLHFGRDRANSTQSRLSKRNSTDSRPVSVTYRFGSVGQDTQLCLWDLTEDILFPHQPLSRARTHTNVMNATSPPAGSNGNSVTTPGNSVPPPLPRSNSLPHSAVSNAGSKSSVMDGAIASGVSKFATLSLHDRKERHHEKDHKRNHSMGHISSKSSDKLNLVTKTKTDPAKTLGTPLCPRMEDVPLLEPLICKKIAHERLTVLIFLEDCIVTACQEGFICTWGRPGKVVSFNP
In short: as §1

OTUD6A = target: T2, OTUD6A (Homo sapiens, UniProt Q7L8S5)
T2 sequence (Q7L8S5 1-288): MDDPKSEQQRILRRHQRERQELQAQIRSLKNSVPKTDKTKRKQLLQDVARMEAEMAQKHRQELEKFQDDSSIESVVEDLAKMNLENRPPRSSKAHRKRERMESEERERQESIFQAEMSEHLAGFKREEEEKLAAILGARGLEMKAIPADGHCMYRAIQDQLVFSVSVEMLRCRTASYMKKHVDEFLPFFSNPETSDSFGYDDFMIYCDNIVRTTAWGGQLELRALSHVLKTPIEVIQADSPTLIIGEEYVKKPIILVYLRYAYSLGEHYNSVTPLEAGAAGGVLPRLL
In short: as §1

remaining activity at 1 µM (USP15): 103%
remaining activity at 10 µM (USP15): 101%
remaining activity at 100 µM (USP15): 98.1%
remaining activity at 1 µM (USP12/UAF1/WDR20): 114%
remaining activity at 10 µM (USP12/UAF1/WDR20): 106%
remaining activity at 100 µM (USP12/UAF1/WDR20): 104%
remaining activity at 1 µM (OTUD6A): 103%
remaining activity at 10 µM (OTUD6A): 99.3%
remaining activity at 100 µM (OTUD6A): 101%
Compound: CC(C)(C)NS(=O)(=O)c1ccc(NC(=O)[C@H](Cc2ccccc2)NC(=O)c2ccc(F)cc2)cc1 [compound 39, CMPD-39]
